For assay [1], the target named is T1, human mitochondrial CIpP (HsCIpP) (Homo sapiens, UniProt Q16740).
T1 construct: made in house; host or cells: E. coli SG1146 (BL21(DE3) ΔclpP::cat)
Description: Screen of ADEP analogs against HsCIpP: relative degradation (RD) index, casein-FITC degradation relative to E. coli CIpAP. The assay is classed as biochemical. Set-up: key: casein-FITC degradation by HsClpP relative to EcClpAP. An excerpt: Structural analogs of acyldepsipeptide (ADEP) (Goodreid et al., 2016) that were previously developed as potential antibiotics against bacterial CIpP were screened and assessed for their ability to activate and dysregulate the protease activity of HsCIpP, by measuring their relative degradation (RD) index. Note that ADEP-28 was also previously reported by Carney et al. (2014). Details of the experimental protocol have been described in Leung et al., 2011. The RD index is defined as follows: […]
Δφ is the change in fluorescence after 6 hr of starting the reaction measured using 485 nm excitation and 535 nm emission, which primarily detects the signal from casein-FITC. E. coli CIpAP was used as a benchmark for maximum CIpP proteolytic activity. The CIpP in the numerator can be from any other organism. RD25 measurements refer to the measurement in the presence of 25 μM compound. All ADEP analogs were first screened at 25 μM, and their RD25 scores were calculated using the above formula and method as described in Leung et al., 2011 (FIG. 1A). Those that achieved RD25≥0.87 were screened a second time at 5 μM, followed by calculation of their RD5 scores. The top analogs with RD5≥0.74 were screened a third time at 1 μM, followed by calculation of their RD1 scores (FIG. 1B).
To identify ADEP analogs that allow HsCIpP to degrade folded proteins independent of HsCIpX+ATP (i.e., that activate or dysregulate HsCIpP), the inventors employed the in vitro screening method that was used for identifying small molecule activators of Escherichia coli CIpP (EcCIpP) (Leung et al., 2011). In this approach, the ability of HsCIpP to degrade FITC-labeled casein (casein-FITC) was measured and compared to the ability of EcCIpAP to degrade casein-FITC. This is quantitatively expressed as relative degradation (RD) index (Leung et al., 2011).

For assay [2], the target named is T2, HsCIpP (Homo sapiens, UniProt Q16740, P57S).
T2 construct: 2x(His6-thrombin)-SUMO (N, cleaved yes); made in house; host or cells: E. coli (SG1146 stated for HsClpP; 'a similar protocol' for HsClpX)
As to the kind of experiment: Peptidase activity assay (Ac-WLA-AMC cleavage) with ADEP. Particulars: 6 μM HsCIpP, 100 μM Ac-WLA-AMC. The assay is classed as biochemical. As for the experimental part:
The peptidase activity of purified, untagged HsCIpP was assessed by monitoring the degradation of peptidyl substrates labelled with a C-terminal 7-amido-4-methylcoumarin (AMC) fluorophore. […] To identify a suitable peptidyl substrate, commercially available AMC-labelled peptides were purchased and tested for degradation by HsCIpP. These include N-acetyl-Trp-Leu-Ala-AMC (Ac-WLA-AMC) (R&D Systems) that was also previously used by Csizmadia et (Csizmadia et al., 2016), benzyloxycarbonyl-Arg-Arg-AMC (Z-RR-AMC) (Sigma-Aldrich), N-acetyl-Leu-Glu-His-Asp-AMC […] (Sigma-Aldrich), N-acetyl-Val-Glu-Thr-Asp-AMC (Ac-VETD-AMC) (Sigma-Aldrich), and benzyloxycarbonyl-Leu-Leu-Leu-AMC (Z-LLL-AMC) (Sigma-Aldrich). Suc-LY-AMC (MP Biomedicals) was also tested as a negative control. All stock solutions of the AMC-labelled peptides were prepared by dissolving the lyophilized peptides in DMSO at 90 mM or a lower concentration recommended by the manufacturer. […] Degradation of the peptidyl substrates and subsequent release of the free AMC moiety was monitored by fluorescence with λex=360 nm and λem=440 nm using the EnSpire 2300 Multilabel Reader (Perkin-Elmer) set to perform a reading every 30 s with 20 flashes. A total of 240 readings were collected for each of three independent replicates prepared for each peptidyl substrate. […]
Initial degradation rates data were analyzed using the Hill model. […]

For assay [3], the system named is HEK293 cells. Conditions: reported (Bram et al., 2006); cited from earlier work.

Structures are written as SMILES. Where a SMILES comes first, the peptide text is derived from it. Bridges are numbered along the chain shown (N, C = ends). [ ]: non-standard residue; d: D form. The star is where a group is joined. Pro(4R-Me) = C[C@H]1CN[C@H](C(=O)O)C1; NMeA = CN[C@@H](C)C(=O)O; X1 = CCC/C=C/C=C/C(=O)*

T1 sequence (Q16740 57-277): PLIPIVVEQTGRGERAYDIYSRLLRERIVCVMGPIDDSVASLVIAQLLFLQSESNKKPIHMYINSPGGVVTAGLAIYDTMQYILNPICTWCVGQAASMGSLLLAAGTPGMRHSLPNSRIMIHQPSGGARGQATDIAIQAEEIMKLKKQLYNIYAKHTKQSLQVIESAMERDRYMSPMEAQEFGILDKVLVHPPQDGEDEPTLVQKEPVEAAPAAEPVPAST
T2 sequence (Q16740 57-277 P57S): as the sequence (Q16740 57-277) above, with P1S counted along it

Consider `CCC/C=C/C=C/C(=O)N[C@@H](Cc1ccccc1)C(=O)N[C@H]1COC(=O)[C@@H]2C[C@@H](C)CN2C(=O)[C@H](C)NC(=O)[C@H](C)N(C)C(=O)[C@@H]2CCCN2C1=O` [ADEP-04] (X1-FSP[NMeA]A[Pro(4R-Me)]; ester 2-C), for which the “Hs RD1” value in assay [1] (RD value at 1 μM of the ADEP analog) was 0.32. In addition, the “Hs RD5” value in assay [1] (RD value at 5 μM of the ADEP analog) turned out to be 0.78. In addition, the “Hs RD25” value in assay [1] (RD value at 25 μM of the ADEP analog, measure of ability to activate HsCIpP) was 1.03. For the same compound, the “Hill coefficient (h), peptidase activity” value in assay [2] was determined as 0.8.

Regarding `Cc1nc(N)nc(N)c1-c1ccc(Cl)c(Cl)c1` [Metoprine], the IC50 in assay [3] was 800 nM.

Consider `N.N.[Cl][Pt][Cl]` [cisplatin], for which, in assay [3], the IC50 is 430 nM.

Source of the values: patent US20210171576A1, “METHODS FOR TREATING CANCER WITH ACYLDEPSIPEPTIDE ANALOGS” (priority 2018, published 2021).
